From EP0908457B1, “3-(1,2-benzisothiazol- and isoxazol-5-Y1)-2,4(1H,3H)-pyrimidinedione or thione and 3-(1,2-benzisothiazol- and isoxazol-5-y1)-4(3H)-pyrimidinone or thione herbicidal agents” (BASF AKTIENGESELLSCHAFT, priority 1997, dated 1999)

Experiments:
[1] = system: Monochoria vaginalis, Presl.; experiment: Preemergence weed control under flooded paddy conditions, MOOVA (Monochoria); format: in vivo; details: flooded paddy, rated three to four weeks after treatment; for herbicidal effect rating, MOOVA: meaning of each grade not given here
Sagittaria pygmaea, L. = experiment: Preemergence weed control under flooded paddy conditions, SAGPY (Arrowhead (Pygmaea)); format: in vivo; details: flooded paddy, rated three to four weeks after treatment; for herbicidal effect rating, SAGPY: meaning of each grade not given here
Cyperus iria = experiment: Preemergence weed control under flooded paddy conditions, CYPIR (Rice Flatsedge); format: in vivo; details: flooded paddy, rated three to four weeks after treatment; for herbicidal effect rating, CYPIR: meaning of each grade not given here
[2] = system: Oryza sativa, (L.) Tebonnet; experiment: Rice tolerance to post-transplant applications under flooded paddy conditions (Example 187), ORYSAT (Rice, Tebonnet); details: rated three to four weeks after treatment; for herbicidal effect rating ORYSAT: meaning of each grade not given here
[3] = system: Echinochloa oryzoides (Ard.) Fritsch.; experiment: Preemergence weed control under flooded paddy conditions, ECHORC (Watergrass (Calif.)); format: in vivo; details: flooded paddy, rated three to four weeks after treatment; for herbicidal effect rating, ECHORC: meaning of each grade not given here
[4] = system: Cyperus serotinus, Rottb.; experiment: Preemergence weed control under flooded paddy conditions, CYPSE (Flatsedge); format: in vivo; details: rated three to four weeks after treatment; for herbicidal effect rating, CYPSE: meaning of each grade not given here
[5] = 0.0313 kg/ha, preemergence weeds
[6] = 0.0625 kg/ha, preemergence weeds
[7] = 0.1250 kg/ha, preemergence weeds
[8] = 0.2500 kg/ha, preemergence weeds
[9] = Rate 0.1250 kg/ha, preemergence
[10] = Rate 0.2500 kg/ha, preemergence
[11] = Rate 0.0320 kg/ha, preemergence
[12] = Rate 0.0620 kg/ha, preemergence

CCCCOCc1nsc2ccc(-n3c(=O)cc(C(F)(F)F)n(C)c3=O)cc12 [Example 204, 3-[3-(Butoxymethyl)-1,2-benzisothiazol-5-yl]-1-methyl-6-(trifluoromethyl)-2,4(1H,3H)-pyrimidinedione]
herbicidal effect rating, MOOVA [1, 5]: 0.0 | herbicidal effect rating, MOOVA [1, 6]: 2.0 | herbicidal effect rating, MOOVA [1, 7]: 4.0 | herbicidal effect rating, MOOVA [1, 8]: 7.0 | herbicidal effect rating, SAGPY (Sagittaria pygmaea, L.; [5]): 0.0 | herbicidal effect rating, SAGPY (Sagittaria pygmaea, L.; [6]): 0.0 | herbicidal effect rating, SAGPY (Sagittaria pygmaea, L.; [7]): 0.0 | herbicidal effect rating, SAGPY (Sagittaria pygmaea, L.; [8]): 0.0 | herbicidal effect rating, CYPIR (Cyperus iria; [5]): 9.0 | herbicidal effect rating, CYPIR (Cyperus iria; [6]): 9.0 | herbicidal effect rating, CYPIR (Cyperus iria; [7]): 9.0 | herbicidal effect rating, CYPIR (Cyperus iria; [8]): 9.0 | herbicidal effect rating, ORYSAT (rice tolerance) ([2]; 0.0313 kg/ha): 3.0 | herbicidal effect rating, ORYSAT (rice tolerance) ([2]; 0.0625 kg/ha): 4.0 | herbicidal effect rating, ORYSAT (rice tolerance) ([2]; 0.1250 kg/ha): 7.0 | herbicidal effect rating, ORYSAT (rice tolerance) ([2]; 0.2500 kg/ha): 7.0 | herbicidal effect rating, ECHORC [3, 5]: 0.0 | herbicidal effect rating, ECHORC [3, 6]: 2.0 | herbicidal effect rating, ECHORC [3, 7]: 4.0 | herbicidal effect rating, ECHORC [3, 8]: 9.0 | herbicidal effect rating, CYPSE [4, 5]: 0.0 | herbicidal effect rating, CYPSE [4, 6]: 0.0 | herbicidal effect rating, CYPSE [4, 7]: 2.0 | herbicidal effect rating, CYPSE [4, 8]: 7.0

COC(=O)C(C)(C)c1nsc2ccc(-n3c(=O)cc(C(F)(F)F)n(C)c3=O)cc12 [Example 490, 1,2-Benzisothiazole-3-acetic acid, 5-[3,6-dihydro-3-methyl-2,6-dioxo-4-(trifluoromethyl)-1(2H)-pyrimidinyl]-alpha,alpha-dimethyl-, methyl ester]
MOOVA herbicidal rating ([1]; 0.0320 kg/ha, preemergence): 9.0 | MOOVA herbicidal rating ([1]; 0.0620 kg/ha, preemergence): 9.0 | MOOVA herbicidal rating ([1]; 0.1250 kg/ha, preemergence): 9.0 | MOOVA herbicidal rating ([1]; 0.2500 kg/ha, preemergence): 9.0 | SAGPY herbicidal rating (Sagittaria pygmaea, L.; 0.0320 kg/ha, preemergence): 6.0 | SAGPY herbicidal rating (Sagittaria pygmaea, L.; 0.0620 kg/ha, preemergence): 9.0 | SAGPY herbicidal rating (Sagittaria pygmaea, L.; 0.1250 kg/ha, preemergence): 9.0 | SAGPY herbicidal rating (Sagittaria pygmaea, L.; 0.2500 kg/ha, preemergence): 9.0 | CYPIR herbicidal rating (Cyperus iria; 0.0320 kg/ha, preemergence): 9.0 | CYPIR herbicidal rating (Cyperus iria; 0.0620 kg/ha, preemergence): 9.0 | CYPIR herbicidal rating (Cyperus iria; 0.1250 kg/ha, preemergence): 9.0 | CYPIR herbicidal rating (Cyperus iria; 0.2500 kg/ha, preemergence): 9.0 | ORYSAT herbicidal rating (rice tolerance) ([2]; 0.0320 kg/ha): 7.5 | ORYSAT herbicidal rating (rice tolerance) ([2]; 0.0620 kg/ha): 9.0 | ORYSAT herbicidal rating (rice tolerance) ([2]; 0.1250 kg/ha): 8.5 | ORYSAT herbicidal rating (rice tolerance) ([2]; 0.2500 kg/ha): 9.0 | ECHORC herbicidal rating ([3]; 0.0320 kg/ha, preemergence): 8.0 | ECHORC herbicidal rating ([3]; 0.0620 kg/ha, preemergence): 9.0 | ECHORC herbicidal rating ([3]; 0.1250 kg/ha, preemergence): 9.0 | ECHORC herbicidal rating ([3]; 0.2500 kg/ha, preemergence): 9.0 | CYPSE herbicidal rating ([4]; 0.0320 kg/ha, preemergence): 9.0 | CYPSE herbicidal rating ([4]; 0.0620 kg/ha, preemergence): 9.0 | CYPSE herbicidal rating ([4]; 0.1250 kg/ha, preemergence): 9.0 | CYPSE herbicidal rating ([4]; 0.2500 kg/ha, preemergence): 9.0

COC(=O)C(C)Oc1cc(Cl)c(C)cc1-c1nsc2ccc(-n3c(=O)cc(C(F)(F)F)n(C)c3=O)cc12 (centres unmarked) [Example 492, Propionic acid, 2-{{5-chloro-2-{5-[3,6-dihydro-3-methyl-2,6-dioxo-4-(trifluoromethyl)-1(2H)-pyrimidinyl]-1,2-benzisothiazol-3-yl}-p-tolyl}oxy}-, methyl ester]
MOOVA herbicidal rating ([1]; 0.0320 kg/ha, preemergence): 6.0 | MOOVA herbicidal rating ([1]; 0.0620 kg/ha, preemergence): 6.0 | MOOVA herbicidal rating ([1]; 0.1250 kg/ha, preemergence): 7.0 | MOOVA herbicidal rating ([1]; 0.2500 kg/ha, preemergence): 7.0 | SAGPY herbicidal rating (Sagittaria pygmaea, L.; 0.0320 kg/ha, preemergence): 0.0 | SAGPY herbicidal rating (Sagittaria pygmaea, L.; 0.0620 kg/ha, preemergence): 0.0 | SAGPY herbicidal rating (Sagittaria pygmaea, L.; 0.1250 kg/ha, preemergence): 0.0 | SAGPY herbicidal rating (Sagittaria pygmaea, L.; 0.2500 kg/ha, preemergence): 2.0 | CYPIR herbicidal rating (Cyperus iria; 0.0320 kg/ha, preemergence): 4.0 | CYPIR herbicidal rating (Cyperus iria; 0.0620 kg/ha, preemergence): 4.0 | CYPIR herbicidal rating (Cyperus iria; 0.1250 kg/ha, preemergence): 4.0 | CYPIR herbicidal rating (Cyperus iria; 0.2500 kg/ha, preemergence): 5.0 | ORYSAT herbicidal rating (rice tolerance) ([2]; 0.0320 kg/ha): 2.0 | ORYSAT herbicidal rating (rice tolerance) ([2]; 0.0620 kg/ha): 2.0 | ORYSAT herbicidal rating (rice tolerance) ([2]; 0.1250 kg/ha): 2.0 | ORYSAT herbicidal rating (rice tolerance) ([2]; 0.2500 kg/ha): 3.0 | ECHORC herbicidal rating ([3]; 0.0320 kg/ha, preemergence): 4.0 | ECHORC herbicidal rating ([3]; 0.0620 kg/ha, preemergence): 6.0 | ECHORC herbicidal rating ([3]; 0.1250 kg/ha, preemergence): 6.0 | ECHORC herbicidal rating ([3]; 0.2500 kg/ha, preemergence): 9.0 | CYPSE herbicidal rating ([4]; 0.2500 kg/ha, preemergence): 0.0

Cn1c(C(F)(F)F)cc(=O)n(-c2ccc3snc(C(C#N)=Cc4ccc[nH]4)c3c2)c1=O [Example 598, 1,2-Benzisothiazole-3-acetonitrile, 5-[3,6-dihydro-3-methyl-2,6-dioxo-4-(trifluoromethyl)-1(2H)-pyrimidinyl]-alpha-(pyrrol-2-ylmethylene)-]
herbicidal effect rating, MOOVA [1, 9]: 7.0 | herbicidal effect rating, MOOVA [1, 10]: 7.0 | herbicidal effect rating, SAGPY (Sagittaria pygmaea, L.; [11]): 0.0 | herbicidal effect rating, SAGPY (Sagittaria pygmaea, L.; [12]): 0.0 | herbicidal effect rating, SAGPY (Sagittaria pygmaea, L.; [9]): 0.0 | herbicidal effect rating, SAGPY (Sagittaria pygmaea, L.; [10]): 0.0 | herbicidal effect rating, CYPIR (Cyperus iria; [11]): 0.0 | herbicidal effect rating, CYPIR (Cyperus iria; [12]): 0.0 | herbicidal effect rating, CYPIR (Cyperus iria; [9]): 2.0 | herbicidal effect rating, CYPIR (Cyperus iria; [10]): 3.0 | herbicidal effect rating ORYSAT ([2]; Rate 0.0320 kg/ha): 0.0 | herbicidal effect rating ORYSAT ([2]; Rate 0.0620 kg/ha): 0.0 | herbicidal effect rating ORYSAT ([2]; Rate 0.1250 kg/ha): 3.0 | herbicidal effect rating ORYSAT ([2]; Rate 0.2500 kg/ha): 3.0 | herbicidal effect rating, ECHORC [3, 11]: 0.0 | herbicidal effect rating, ECHORC [3, 12]: 0.0 | herbicidal effect rating, ECHORC [3, 9]: 0.0 | herbicidal effect rating, ECHORC [3, 10]: 0.0 | herbicidal effect rating, CYPSE [4, 11]: 0.0 | herbicidal effect rating, CYPSE [4, 10]: 0.0

Cn1c(C(F)(F)F)cc(=O)n(-c2cc3c(CBr)nsc3cc2F)c1=O [Example 376, 2,4(1H,3H)-Pyrimidinedione, 3-[3-(bromomethyl)-6-fluoro-1,2-benzisothiazol-5-yl]-1-methyl-6-(trifluoromethyl)-]
herbicidal effect rating, MOOVA [1, 11]: 9.0 | herbicidal effect rating, MOOVA [1, 12]: 9.0 | herbicidal effect rating, MOOVA [1, 9]: 9.0 | herbicidal effect rating, MOOVA [1, 10]: 9.0 | herbicidal effect rating, SAGPY (Sagittaria pygmaea, L.; [11]): 8.0 | herbicidal effect rating, SAGPY (Sagittaria pygmaea, L.; [12]): 8.5 | herbicidal effect rating, SAGPY (Sagittaria pygmaea, L.; [9]): 9.0 | herbicidal effect rating, SAGPY (Sagittaria pygmaea, L.; [10]): 9.0 | herbicidal effect rating, CYPIR (Cyperus iria; [11]): 3.0 | herbicidal effect rating, CYPIR (Cyperus iria; [12]): 8.0 | herbicidal effect rating, CYPIR (Cyperus iria; [9]): 9.0 | herbicidal effect rating, CYPIR (Cyperus iria; [10]): 9.0 | herbicidal effect rating ORYSAT ([2]; Rate 0.0320 kg/ha): 4.0 | herbicidal effect rating ORYSAT ([2]; Rate 0.0620 kg/ha): 6.0 | herbicidal effect rating ORYSAT ([2]; Rate 0.1250 kg/ha): 6.0 | herbicidal effect rating ORYSAT ([2]; Rate 0.2500 kg/ha): 8.5 | herbicidal effect rating, ECHORC [3, 11]: 3.0 | herbicidal effect rating, ECHORC [3, 12]: 5.5 | herbicidal effect rating, ECHORC [3, 9]: 6.5 | herbicidal effect rating, ECHORC [3, 10]: 9.0 | herbicidal effect rating, CYPSE [4, 11]: 3.0 | herbicidal effect rating, CYPSE [4, 12]: 4.0 | herbicidal effect rating, CYPSE [4, 9]: 5.5 | herbicidal effect rating, CYPSE [4, 10]: 8.0
